Reference: patent US20210205322A1, “RICTOR-TARGETED THERAPY IN THE MANAGEMENT OF BRAIN METASTASES” (Albert Einstein College of Medicine, priority 2020, published 2021)
Entries after “also recorded” stand apart in the source; their conditions may differ.

Columns and labels:
[1] = tested on: lung cancer cell; test: SDF-1α-induced invasion and migration (CXCR4 pathway); type: cell-based
Experimental: (§1) In vitro Cell Migration and Invasion Assay: The transwell assay was performed according to manufacturer's protocol (Corning, N.Y.). Briefly, the cells were starved for 24 hours and then seeded on the transwell insert (Corning, N.Y.) in 12-well plates. The bottom of the well contained medium with 10% FBS. After 24 hours, the bottom of the inserts were fixed with 70% ethanol and stained with 0.5% crystal violet. The cells were counted triplicate under microscope.
(§2) In the invasion assay, matrigel (0.8 mg/ml) layer was added on the transwell insert first. After the matrigel layer was solidified, the experiment was performed in the same way as the migration assay.

[2] = tested on: lung cancer cell; test: Apoptosis (cleaved PARP) with AKT inhibitors; type: cell-based; details: for apoptosis: AKT inhibitor added to inducible RICTOR knockdown; for apoptosis (cleaved PARP): AKT inhibitor alone
Experimental: (§3) Immunoblotting and Antibodies: All antibodies were purchased from Cell Signaling Technology (Boston, Mass.). Cell lysate was harvested using RIPA buffer and the supernatant was subjected for following steps after centrifugation. Proteins were subjected to 10% SDS-PAGE gel and transferred onto […] nitrocellulose membrane (Biorad, Calif., USA) for western blot analysis. After incubation with primary antibody overnight at 4° C., the membrane was washed and incubated with secondary antibodies. The final blots were developed with a chemiluminesence system (Promega, Wis., USA).
(§4) AKT is a downstream effector of the RICTOR-mTOCR2 pathway, to determine its role in RICTOR-mediated metastasis, the effects of two structurally different AKT inhibitors, AR-42 and ipatasertib were inestigated.

[3] = tested on: lung cancer cell; test: Cell proliferation with AKT inhibitors; type: cell-based; details: 24-hour treatment
Description: as §4

[4] = tested on: lung cancer cell; test: Invasion and migration with AKT inhibitors; type: cell-based; details: for invasion and migration: AKT inhibitor added to inducible RICTOR knockdown; for lung cancer cell invasion and migration: AKT inhibitor alone, FIG. 10A-E
Experimental: as §1, §2, §4

[5] = tested on: RICTOR-amplified H23 lung cancer cells; test: Transwell cell migration and invasion assay in H23 cells; type: cell-based; details: in vitro; FIG. 7C
Experimental: as §1, §2

[6] = tested on: RICTOR-amplified H1703 lung cancer cells; test: Transwell cell migration and invasion assay in H1703 cells; type: cell-based; details: in vitro; FIG. 7C
Experimental: as §1, §2

[7] = tested on: HCC827 OE cells; test: Transwell cell migration and invasion assay in HCC827 OE cells; type: cell-based; details: migration and invasion promoted by RICTOR upregulation (doxycycline)
Experimental: as §1, §2

[8] = tested on: PC9 parental cells; test: Cell growth assay, combined treatment of sapanisertib and EGFR TKIs; details: sapanisertib 5 nM combined with erlotinib, afatinib or osimertinib; FIG. 3C
Experimental: Clonogenic Survival Assay: Logarithmically growing cells were plated in triplicate. All drugs were added for 72 hours and withdrawn afterwards. After 10-14 days, colonies were fixed with 70% EtOH and stained with 0.5% crystal violet (Sigma Aldrich, St Louis, Mo.). Surviving colonies were defined as colonies containing >50 cells.

[9] = tested on: H23 lung cancer cells labeled with luciferase reporter gene; test: In vivo metastasis assay, stereotactic brain injection model; design: species or system mouse
Description: To further test whether RICTOR amplification affects in vivo metastasis, either the inducible H23-R4 or the parental H23 lung cancer cells labeled with luciferase reporter gene (H23-R4-Luc) were implanted in mouse brain stereotactically.

[10] = tested on: PC9-R4; test: Drug response by clonogenic survival assay in inducible RICTOR knockdown PC9-R4 cells; type: cell-based; details: for inhibitory effects on cell proliferation: RICTOR knockdown cells vs no knockdown
[11] = tested on: ER cells; test: ER mouse tumor xenograft model; type: in vivo, mice
Experimental: Xenograft Mouse Studies: Athymic mice (Envigo Laboratory, male, 6-8 weeks old) were inoculated subcutaneously with 5×10^6 NSCLC cells. After 2 days, mice were divided into a vehicle control (water) group and a doxycycline group, with 6 mice in each group. Doxycycline was administered by oral gavage: 100 mg/kg/day. The same volume of water was given to the control group. A total of 20 daily doses were administered in 4 weeks. […] Tumors were measured with calipers twice weekly and the size was calculated as length×width^2/2. The protocol was approved by the Institutional Animal Care and Use Committee.
The in vivo mouse tumor xenograft model was performed using ER cells.

[12] = tested on: HCC827-R4
[13] = tested on: HCC827 OE cells; test: Western blot analysis (c-PARP) of osimertinib-treated HCC827 OE cells; type: cell-based; details: osimertinib-treated cells with RICTOR upregulation; osimertinib 50 nM; FIG. 4D
Experimental: Immunoblotting and Antibodies: All antibodies were purchased from Cell Signaling Technology (Boston, Mass.). Cell lysate was harvested using RIPA buffer and the supernatant was subjected for following steps after centrifugation. Proteins were subjected to 10% SDS-PAGE gel and transferred onto 0.45 μM nitrocellulose membrane (Biorad, Calif., USA) for western blot analysis. After incubation with primary antibody overnight at 4° C., the membrane was washed and incubated with secondary antibodies. The final blots were developed with a chemiluminesence system (Promega, Wis., USA).

[14] = tested on: erlotinib-resistant HCC827 cell line (ER); test: MTS cell viability and clonogenic survival assays in erlotinib-resistant HCC827 cells (ER); type: cell-based; details: Axl-overexpressed ER; FIG. 1I and 1J
Experimental: Cell Growth and Viability Assay: The MTS proliferation assay was performed as described in manufacture protocol (Promega, Wis., USA). Cells were seeded at a density of 2000 cells per well in 96-well plates. After incubating with drugs for 72 hours, MTS reagent was added and the absorbance was measured at 490 nm. Viable cell numbers were determined using the MTS assay kit according to the manufacturer's protocol.

[15] = tested on: ER3-R4; test: Western blot analysis (c-PARP) of osimertinib-treated ER3-R4 cells; type: cell-based; details: osimertinib-treated cells with RICTOR knockdown; osimertinib 0.5 μM; FIG. 4D
Experimental: as §3
To evaluate whether RICTOR-induced Axl upregulation was a common resistant mechanism for EGFR TKIs, Axl signaling in osimertinib-treated ER3-R4 and HCC827 OE cells was examined. […] Taken together, RICTOR positively regulates EGFR TKI resistance by upregulating Axl expression, which seems to be a common resistance mechanism shared by EGFR TKIs.

[16] = tested on: HCC827 OE; details: RICTOR upregulation with doxycycline; FIG. 2C
Experimental: Next, it was determined whether RICTOR upregulation could result in EGFR TKI resistance. A doxycycline-inducible RICTOR upregulation model in HCC827 cells (HCC827 OE) was generated.

## c1cc(CN2CCCNCCNCCCNCC2)ccc1CN1CCCNCCNCCCNCC1 [AMD3100]
[1]; FIG. 11B and C
  SDF-1α-induced invasion and migration: significantly reduced

## CC(C)[C@H](C(=O)Nc1ccc(C(=O)NO)cc1)c1ccccc1 [AR-42]
[2]
  apoptosis: more pronounced apoptosis
  apoptosis (cleaved PARP): increased apoptosis
[3]
  change in cell proliferation: did not result in significant change
[4]
  invasion and migration: significantly further reduced
  lung cancer cell invasion and migration: significantly decreased

## CNC(=O)c1cccc(-c2ccc3c(N4CCOC[C@@H]4C)nc(N4CCOC[C@@H]4C)nc3n2)c1 [AZD2014, 3-[2,4-bis[(3S)-3-methylmorpholin-4-yl]pyrido[2,3-d]pyrimidin-7-yl]-N-methylbenzamide]
[5]
  migration and invasion: significantly reduced
[6]
  migration and invasion: significantly reduced

## Nc1cc(C(F)(F)F)c(-c2nc(N3CCOCC3)nc(N3CCOCC3)n2)cn1 [PQR309, 5-(4,6-dimorpholin-4-yl-1,3,5-triazin-2-yl)-4-(trifluoromethyl)pyridin-2-amine]
[5]
  migration and invasion: significantly reduced
[6]
  migration and invasion: significantly reduced

## CC(C)n1nc(-c2ccc3oc(N)nc3c2)c2c(N)ncnc21 [TAK228, 5-(4-amino-1-propan-2-yl-3-pyrazolo[3,4-d]pyrimidinyl)-1,3-benzoxazol-2-amine]
[5]
  migration and invasion: significantly reduced
[7]
  cell migration and invasion: inhibited
[6]
  migration and invasion: significantly reduced
[8]
  sensitivity of EGFR TKIs in combined treatment: significantly improved the sensitivity of all three inhibitors
[9]; P<0.01, FIG. 8B
  reduction of tumor growth in the brain: approximately 75%
[9]; after 4 weeks of daily oral lavage, 3 out 7
  near complete responses: 43%
[9]; result in words
  tumor growth in the brain: remarkably reduced the lung cancer growth in the brain; also recorded: significantly reduced tumor growth in the brain

## CN(C)C/C=C/C(=O)Nc1cc2c(Nc3ccc(F)c(Cl)c3)ncnc2cc1O[C@H]1CCOC1 [afatinib]
[10]; PC-9 cells, FIG. 3B
  decrease of IC50 upon RICTOR knockdown: > 10 fold

## C#Cc1cccc(Nc2ncnc3cc(OCCOC)c(OCCOC)cc23)c1 [erlotinib]
[11]; combination treatment (RICTOR knockdown and erlotinib), western blot of tumor lysate, FIG. 1H
  expression of Axl in xenograft tumors: lowest expression of Axl
[11]; combined treatment (RICTOR knockdown by doxycycline and erlotinib), vs either approach alone, P<0.05
  tumor growth: markedly blocked tumor growth
[11]; erlotinib alone, four weeks of treatment, oral gavage daily
  tumor growth: failed to inhibit tumor growth
[10]
  inhibitory effects on cell proliferation: higher inhibitory effects

## CC(C)NC[C@@H](C(=O)N1CCN(c2ncnc3c2[C@H](C)C[C@H]3O)CC1)c1ccc(Cl)cc1 [ipatasertib]
[2]
  apoptosis: more pronounced apoptosis
  apoptosis (cleaved PARP): increased apoptosis
[3]
  change in cell proliferation: did not result in significant change
[4]
  invasion and migration: significantly further reduced
  lung cancer cell invasion and migration: significantly decreased

## C=CC(=O)Nc1cc(Nc2nccc(-c3cn(C)c4ccccc34)n2)c(OC)cc1N(C)CCN(C)C [osimertinib]
[12]
  decrease of IC50 upon RICTOR knockdown: > 10 fold
  inhibitory effects on cell proliferation: higher inhibitory effects
[13]
  apoptosis: less apoptosis
[14]
  drug response of ER: resistance to both inhibitors
[15]
  apoptosis (c-PARP): more pronounced apoptosis
[10]
  inhibitory effects on cell proliferation: higher inhibitory effects
[16]
  resistance compared to parental HCC827 cells: more resistant

## SDF-1α
[1]; activation of the CXCR4 pathway by treatment with SDF-1α
  migration and invasion: increased migration and invasion
